This note sets out measurements from ChEMBL document CHEMBL4308916, “Leucoflavonine, a new bioactive racemic flavoalkaloid from the leaves of Leucosceptrum canum” (Bioorg Med Chem, 2019).

Active and inactive are the calls of the source. The calls are words filed in the database; no cut-off is given here.

Data set [1] concerns NCI-H1975. Nature of the data set: cells. The conditions noted are these: Homo sapiens, NCI-H1975, 72 h.
Description: Cytotoxicity against human NCI-H1975 cells after 72 hrs by MTT assay
In data set [2] the test system is PC-9. The data set is described as follows: Cytotoxicity against human PC9 cells after 72 hrs by MTT assay. It is filed as cell-based. The conditions noted are these: PC-9, 72 h.
For data set [3], the system named is HepG2. The data set is described as follows: cells. The conditions noted are these: Homo sapiens, HepG2, 72 h.
Description: Cytotoxicity against human HepG2 cells after 72 hrs by MTT assay
Data set [4] concerns RAW264.7. Nature of the data set: Anti-inflammatory activity in mouse RAW264.7 cells assessed as reduction in LPS-induced TNF-alpha production after 48 hrs by ELISA. The data set is classed as functional, cell-based. The conditions noted are these: RAW264.7, 48 h.
In data set [5] the test system is RAW264.7. The data set is described as follows: Anti-inflammatory activity in mouse RAW264.7 cells assessed as reduction in LPS-induced IL-6 production after 48 hrs by ELISA. The data set is classed as functional, cell-based. The conditions noted are these: RAW264.7, 48 h.
Data set [6] deals with Jurkat. The data set is described as follows: cells. The conditions noted are these: Homo sapiens, 48 h.
Description: Immunosuppressive activity in human Jurkat cells assessed as reduction in PHA + PMA-induced IL-2 production after 48 hrs by ELISA
The target in data set [7] is T1, Acetylcholinesterase (Homo sapiens, UniProt P22303). Nature of the data set: Inhibition of AChE (unknown origin) using acetylthiocholine iodide as substrate preincubated for 20 mins followed by substrate addition and measured every 30 secs for 1 hr by Ellman's assay.
The test system of data set [8] is PC-9. Nature of the data set: Cytotoxicity against human PC9 cells at 80 uM after 72 hrs by MTT assay. It is filed as cell-based. The conditions noted are these: pc-9, 72 h.
Data set [9] concerns HepG2. The data set is described as follows: Cytotoxicity against human HepG2 cells at 80 uM after 72 hrs by MTT assay. It is filed as cell-based. The conditions noted are these: hepg2, 72 h.
The subject of data set [10] is NCI-H1975. Nature of the data set: Cytotoxicity against human NCI-H1975 cells at 80 uM after 72 hrs by MTT assay. The data set is classed as cell-based. The conditions noted are these: nci-h1975, 72 h.
Data set [11] concerns Jurkat. The data set is described as follows: Immunosuppressive activity in human Jurkat cells assessed as reduction in PHA + PMA-induced IL-2 production at 20 uM after 48 hrs by ELISA. The data set is classed as functional, cell-based.
Data set [12] deals with T1, Acetylcholinesterase. Nature of the data set: Inhibition of AChE (unknown origin) at 250 uM using acetylthiocholine iodide as substrate preincubated for 20 mins followed by substrate addition and measured every 30 secs for 1 hr by Ellman's assay.

T1 sequence (P22303 whole entry): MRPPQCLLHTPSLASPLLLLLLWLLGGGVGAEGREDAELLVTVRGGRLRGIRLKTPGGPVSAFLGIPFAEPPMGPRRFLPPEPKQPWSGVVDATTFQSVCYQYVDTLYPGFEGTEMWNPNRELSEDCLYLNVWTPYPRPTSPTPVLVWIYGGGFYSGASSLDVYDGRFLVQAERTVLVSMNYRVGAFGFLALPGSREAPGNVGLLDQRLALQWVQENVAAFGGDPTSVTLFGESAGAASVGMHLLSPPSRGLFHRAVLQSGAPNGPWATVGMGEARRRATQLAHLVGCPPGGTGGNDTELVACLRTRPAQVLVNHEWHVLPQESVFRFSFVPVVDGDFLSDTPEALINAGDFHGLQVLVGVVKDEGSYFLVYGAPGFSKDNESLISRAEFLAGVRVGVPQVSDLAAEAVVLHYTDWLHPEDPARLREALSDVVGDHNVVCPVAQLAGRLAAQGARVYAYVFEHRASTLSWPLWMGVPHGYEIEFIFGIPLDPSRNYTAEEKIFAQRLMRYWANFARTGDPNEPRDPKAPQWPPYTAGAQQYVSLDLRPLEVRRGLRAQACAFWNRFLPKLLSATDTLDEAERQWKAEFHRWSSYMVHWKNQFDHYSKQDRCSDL

With `CC(=O)O[C@H]1C(=O)[C@@]2(C)[C@H]([C@H](OC(=O)c3ccccc3)[C@]3(O)C[C@H](OC(=O)[C@H](O)[C@@H](NC(=O)c4ccccc4)c4ccccc4)C(C)=C1C3(C)C)[C@]1(OC(C)=O)CO[C@@H]1C[C@@H]2O` [PACLITAXEL], the IC50 in data set [1] is 3.9 µM; in data set [2], 3.7 µM; in [3], 10.3 µM.

As to `C[C@@H]1C[C@H]2[C@@H]3CCC4=CC(=O)C=C[C@]4(C)[C@@]3(F)[C@@H](O)C[C@]2(C)[C@@]1(O)C(=O)CO` [DEXAMETHASONE], the figures for the IC50 in [4] and in data set [5] were 1.2 µM and 9.4 µM, respectively.

Turning to `COc1ccc(-c2cc(=O)c3cc(OC)c(O)c([C@@H]4CCC(=O)N4)c3o2)cc1`, the IC50 in data set [1] is > 80 µM; in [4], > 20 µM; in data set [6] it was > 20 µM; in data set [7], 68 µM; in data set [2], > 80 µM; in [3], > 80 µM. For the same molecule, the IC50 in data set [5] was > 20 µM. The Activity result in data set [8], in [9] and in data set [10] was “Non-Toxic” in each case.

`COc1ccc(-c2cc(=O)c3cc(OC)c(O)c([C@H]4CCC(=O)N4)c3o2)cc1`: the IC50 was > 80 µM in [1]; > 20 µM in [4]; 16.5 µM in data set [6]; 18.3 µM in data set [7]; > 80 µM in data set [2]; 52.9 µM in data set [3]. In addition, the IC50 in data set [5] was > 20 µM.

On to `COc1ccc(-c2cc(=O)c3c(O)c(OC)c(O)cc3o2)cc1` [PECTOLINARIGENIN], for which the IC50 in data set [1] was 76.6 µM; in [4] it was > 20 µM; in data set [6], > 20 µM; in data set [7], > 250 µM; in data set [2] it was > 80 µM; in data set [3], 18.1 µM. Moreover, the IC50 in data set [5] was > 20 µM. The inhibition entry in data set [11] was “inactive”. Further, the inhibition in [12] is 37.8%.
